Results: patent US20140018376A1, “Use of 1H-Quinazoline-2,4-Diones” (priority 2009, published 2014)

system: mouse; assay: Oral activity in vivo: audiogenic mouse test and/or MES test; settings: oral administration
Experimental: The oral bioavailability was tested using the audiogenic mouse test (Audiogenic seizures, R. L. Collins; Chapter 14, pages: 347-372. In: Experimental Models of Epilepsy; By: Pupura, Penry, Tower, Woodbury, Walter, Raven Press, New York, 1972. Standard Book Number: 0-911216-26-X) and/or the MES test.

Row | Structure (SMILES) | In vivo orally active
1 | CC(O)c1cc2c(=O)n(NS(C)(=O)=O)c(=O)[nH]c2cc1C(F)(F)F (stereo not drawn) [Compound A-1, N-[6-(1-Hydroxy-ethyl)-2,4-dioxo-7-trifluoromethyl-1,4-dihydro-2H-quinazolin-3-yl]-methanesulfonamide] | Yes
2 | CCc1cc2[nH]c(=O)n(NS(C)(=O)=O)c(=O)c2cc1-c1ccnn1C [Compound C-11, N-[7-Ethyl-6-(2-methyl-2H-pyrazol-3-yl)-2,4-dioxo-1,4-dihydro-2H-quinazolin-3-yl]-methanesulfonamide] | Yes
3 | CCc1cc2[nH]c(=O)n(NS(C)(=O)=O)c(=O)c2cc1-c1ccnn1C(C)C [Compound C-6, N-[7-Ethyl-6-(2-isopropyl-2H-pyrazol-3-yl)-2,4-dioxo-1,4-dihydro-2H-quinazolin-3-yl]-methanesulfonamide] | Yes
4 | CCOC(CC)c1cc2c(=O)n(NS(C)(=O)=O)c(=O)[nH]c2cc1C(F)(F)F (stereo not drawn) [Compound A-13, N-[6-(1-Ethoxy-propyl)-2,4-dioxo-7-trifluoromethyl-1,4-dihydro-2H-quinazolin-3-yl]-methanesulfonamide] | Yes
5 | CCCC(O)c1cc2c(=O)n(NS(C)(=O)=O)c(=O)[nH]c2cc1C(F)(F)F (stereo not drawn) [Compound A-15, N-[6-(1-Hydroxy-butyl)-2,4-dioxo-7-trifluoromethyl-1,4-dihydro-2H-quinazolin-3-yl]-methanesulfonamide] | Yes
6 | Cn1nncc1-c1cc2c(=O)n(NS(C)(=O)=O)c(=O)[nH]c2cc1C(F)(F)F [Comparative, N-(6-(1-methyl-1H-1,2,3-triazol-5-yl)-2,4-dioxo-7-trifluoromethyl-1,4-dihydro-2H-quinazolin-3-yl]-methanesulfonamide, reference compound] | No
7 | CC(C)c1cc2[nH]c(=O)n(NS(C)(=O)=O)c(=O)c2cc1-c1ccnn1C [Compound C-7, N-[7-Isopropyl-6-(2-methyl-2H-pyrazol-3-yl)-2,4-dioxo-1,4-dihydro-2H-quinazolin-3-yl]-methanesulfonamide] | Yes
8 | CC(C)n1nccc1-c1cc2c(=O)n(NS(C)(=O)=O)c(=O)[nH]c2cc1C(C)(F)F [Compound C-16, N-[7-(1,1-difluoro-ethyl)-6-(2-isopropyl-2H-pyrazol-3-yl)-2,4-dioxo-1,4-dihydro-2H-quinazolin-3-yl]-methanesulfonamide] | Yes
9 | CC(C)OC(C)c1cc2c(=O)n(NS(C)(=O)=O)c(=O)[nH]c2cc1C(F)(F)F (stereo not drawn) [Compound A-4, N-[6-(1-Isopropoxy-ethyl)-2,4-dioxo-7-trifluoromethyl-1,4-dihydro-2H-quinazolin-3-yl]-methanesulfonamide] | Yes
10 | COCCn1nccc1-c1cc2c(=O)n(NS(C)(=O)=O)c(=O)[nH]c2cc1C(C)C [Compound C-1, N-{7-Isopropyl-6-[2-(2-methoxy-ethyl)-2H-pyrazol-3-yl]-2,4-dioxo-1,4-dihydro-2H-quinazolin-3-yl}-methanesulfonamide] | yes
11 | Cn1nccc1-c1cc2c(=O)n(NS(C)(=O)=O)c(=O)[nH]c2cc1C(F)F [Compound C-9, N-[7-Difluoromethyl-6-(2-methyl-2H-pyrazol-3-yl)-2,4-dioxo-1,4-dihydro-2H-quinazolin-3-yl]-methanesulfonamide] | Yes
12 | CC(C)n1nccc1-c1cc2c(=O)n(NS(C)(=O)=O)c(=O)[nH]c2cc1C(F)F [Compound C-10, N-[7-Difluoromethyl-6-(2-isopropyl-2H-pyrazol-3-yl)-2,4-dioxo-1,4-dihydro-2H-quinazolin-3-yl]-methanesulfonamide] | Yes
13 | CCc1cc2[nH]c(=O)n(NS(C)(=O)=O)c(=O)c2cc1-c1ccnn1CC [Compound C-12, N-[7-Ethyl-6-(2-ethyl-2H-pyrazol-3-yl)-2,4-dioxo-1,4-dihydro-2H-quinazolin-3-yl]-methanesulfonamide] | Yes
14 | COCCC(O)c1cc2c(=O)n(NS(C)(=O)=O)c(=O)[nH]c2cc1C(F)(F)F (stereo not drawn) [Compound A-18, N-[6-(1-Hydroxy-3-methoxy-propyl)-2,4-dioxo-7-trifluoromethyl-1,4-dihydro-2H-quinazolin-3-yl]-methanesulfonamide] | Yes
15 | CCC(OC(C)C)c1cc2c(=O)n(NS(C)(=O)=O)c(=O)[nH]c2cc1C(F)(F)F (stereo not drawn) [Compound A-7, N-[6-(1-isopropoxy-propyl)-2,4-dioxo-7-trifluoromethyl-1,4-dihydro-2H-quinazolin-3-yl]-methanesulfonamide] | Yes
16 | COC(C)c1cc2c(=O)n(NS(C)(=O)=O)c(=O)[nH]c2cc1C(F)(F)F (stereo not drawn) [Compound A-2, N-[6-(1-Methoxy-ethyl)-2,4-dioxo-7-trifluoromethyl-1,4-dihydro-2H-quinazolin-3-yl]-methanesulfonamide] | Yes
17 | CC(C)c1cc2[nH]c(=O)n(NS(C)(=O)=O)c(=O)c2cc1-c1ccnn1C(C)C [Compound C-8, N-[7-Isopropyl-6-(2-isopropyl-2H-pyrazol-3-yl)-2,4-dioxo-1,4-dihydro-2H-quinazolin-3-yl]-methanesulfonamide] | yes
18 | Cn1nccc1-c1cc2c(=O)n(NS(C)(=O)=O)c(=O)[nH]c2cc1C(C)(F)F [Compound C-15, N-[7-(1,1-difluoro-ethyl)-6-(2-methyl-2H-pyrazol-3-yl)-2,4-dioxo-1,4-dihydro-2H-quinazolin-3-yl]-methanesulfonamide] | Yes
19 | CC(F)c1cc2[nH]c(=O)n(NS(C)(=O)=O)c(=O)c2cc1-c1ccnn1C(C)C (stereo not drawn) [Compound C-17, N-[7-(1-fluoro-ethyl)-6-(2-isopropyl-2H-pyrazol-3-yl)-2,4-dioxo-1,4-dihydro-2H-quinazolin-3-yl]-methanesulfonamide] | Yes
20 | CS(=O)(=O)Nn1c(=O)[nH]c2cc(C(F)(F)F)c(C3CCCO3)cc2c1=O (stereo not drawn) [Compound B-2, N-[2,4-Dioxo-6-(tetrahydro-furan-2-yl)-7-trifluoromethyl-1,4-dihydro-2H-quinazolin-3-yl]-methanesulfonamide] | Yes
21 | CCOC(C)c1cc2c(=O)n(NS(C)(=O)=O)c(=O)[nH]c2cc1C(F)(F)F (stereo not drawn) [Compound A-5, N-[6-(1-Ethoxy-ethyl)-2,4-dioxo-7-trifluoromethyl-1,4-dihydro-2H-quinazolin-3-yl]-methanesulfonamide] | Yes
22 | CC(C)n1nccc1-c1cc2c(=O)n(NS(C)(=O)=O)c(=O)[nH]c2cc1C(F)(F)F [Compound C-2, N-[6-(2-Isopropyl-2H-pyrazol-3-yl)-2,4-dioxo-7-trifluoromethyl-1,4-dihydro-2H-quinazolin-3-yl]-methanesulfonamide] | Yes
23 | CCCOC(CC)c1cc2c(=O)n(NS(C)(=O)=O)c(=O)[nH]c2cc1C(F)(F)F (stereo not drawn) [Compound A-6, N-[2,4-Dioxo-6-(1-propoxy-propyl)-7-trifluoromethyl-1,4-dihydro-2H-quinazolin-3-yl]-methanesulfonamide] | Yes
24 | CC(OC1CCCC1)c1cc2c(=O)n(NS(C)(=O)=O)c(=O)[nH]c2cc1C(F)(F)F (stereo not drawn) [Compound A-14, N-[6-(1-Cyclopentyloxy-ethyl)-2,4-dioxo-7-trifluoromethyl-1,4-dihydro-2H-quinazolin-3-yl]-methanesulfonamide] | yes
25 | Cn1nccc1-c1cc2c(=O)n(NS(C)(=O)=O)c(=O)[nH]c2cc1C(F)(F)F [Compound C-18, N-[6-(2-Methyl-2H-pyrazol-3-yl)-2,4-dioxo-7-trifluoromethyl-1,4-dihydro-2H-quinazolin-3-yl]-methanesulfonamide] | Yes
26 | COCCn1nccc1-c1cc2c(=O)n(NS(C)(=O)=O)c(=O)[nH]c2cc1C(F)(F)F [Compound C-4, N-{6-[2-(2-Methoxy-ethyl)-2H-pyrazol-3-yl]-2,4-dioxo-7-trifluoromethyl-1,4-dihydro-2H-quinazolin-3-yl}-methanesulfonamide] | Yes
27 | CC(C)n1nccc1-c1cc2c(=O)n(NS(C)(=O)=O)c(=O)[nH]c2cc1CF [Compound C-3, N-[7-Fluoromethyl-6-(2-isopropyl-2H-pyrazol-3-yl)-2,4-dioxo-1,4-dihydro-2H-quinazolin-3-yl]-methanesulfonamide] | Yes
28 | CS(=O)(=O)Nn1c(=O)[nH]c2cc(C(F)(F)F)c(C3CCOC3)cc2c1=O (stereo not drawn) [Compound B-3, N-[2,4-Dioxo-6-(tetrahydro-furan-3-yl)-7-trifluoromethyl-1,4-dihydro-2H-quinazolin-3-yl]-methanesulfonamide] | Yes
29 | CCC(O)c1cc2c(=O)n(NS(C)(=O)=O)c(=O)[nH]c2cc1C(F)(F)F (stereo not drawn) [Compound A-3, N-[6-(1-Hydroxy-propyl)-2,4-dioxo-7-trifluoromethyl-1,4-dihydro-2H-quinazolin-3-yl]-methanesulfonamide] | Yes
30 | CS(=O)(=O)Nn1c(=O)[nH]c2cc(C(F)(F)F)c(-c3ccnn3O)cc2c1=O [Compound C-5, N-[6-(2-Hydroxy-2H-pyrazol-3-yl)-2,4-dioxo-7-trifluoromethyl-1,4-dihydro-2H-quinazolin-3-yl]-methanesulfonamide] | Yes
